Source: ChEMBL document CHEMBL3045544, “Synthesis, antimicrobial and antioxidant activities of some new indole derivatives containing pyridopyrimidine and pyrazolopyridine moieties” (Med Chem Res, 2013)

Legend:
Aspergillus niger = assay: Antimicrobial activity against Aspergillus niger MTCC 281 assessed as diameter of growth inhibition zone at 500 ug/ml after 72 hr by cup-plate method; type: functional; settings: MTCC 281, 72 h, read-out: DIZ
Aspergillus terreus = assay: Antimicrobial activity against Aspergillus terreus MTCC 1782 assessed as diameter of growth inhibition zone at 500 ug/ml after 72 hr by cup-plate method; type: functional; settings: MTCC 1782, 72 h, read-out: DIZ
Pseudomonas aeruginosa = assay: Antimicrobial activity against Pseudomonas aeruginosa MTCC 1688 assessed as diameter of growth inhibition zone at 500 ug/ml after 24 hr by cup-plate method; type: functional; settings: MTCC 1688, 24 h, read-out: DIZ
Staphylococcus aureus = assay: Antimicrobial activity against Staphylococcus aureus ATCC 29513 assessed as diameter of growth inhibition zone at 500 ug/ml after 24 hr by cup-plate method; type: functional; settings: ATCC 29513, 24 h, read-out: DIZ
Escherichia coli = assay: Antimicrobial activity against Escherichia coli MTCC 723 assessed as diameter of growth inhibition zone at 500 ug/ml after 24 hr by cup-plate method; type: functional; settings: MTCC 723, 24 h, read-out: DIZ
Aspergillus flavus = assay: Antimicrobial activity against Aspergillus flavus MTCC 1973 assessed as diameter of growth inhibition zone at 500 ug/ml after 72 hr by cup-plate method; type: functional; settings: MTCC 1973, 72 h, read-out: DIZ
Klebsiella pneumoniae = assay: Antimicrobial activity against Klebsiella pneumoniae NCTC 13368 assessed as diameter of growth inhibition zone at 500 ug/ml after 24 hr by cup-plate method; type: functional; settings: NCTC 13368, 24 h, read-out: DIZ
Aspergillus oryzae = assay: Antimicrobial activity against Aspergillus oryzae MTCC 3567 assessed as diameter of growth inhibition zone at 500 ug/ml after 72 hr by cup-plate method; type: functional; settings: MTCC 3567, 72 h, read-out: DIZ
[1] = tested on: Radical scavenging activity; assay: Antioxidant activity assessed as DPPH radical scavenging activity at 50 ug/ml by spectrophotometric analysis; type: functional
[2] = Metal chelating activity of the compound assessed as inhibition of ferrozine Fe2+ complex formation at 25 to 100 ug/ml after 10 min by spectrophotometric analysis; type: physicochemical

Row | SMILES | zone of inhibition at 500 µg/mL (Aspergillus niger) | zone of inhibition at 500 µg/mL (Aspergillus terreus) | zone of inhibition at 500 µg/mL (Pseudomonas aeruginosa) | zone of inhibition at 500 µg/mL (Staphylococcus aureus) | zone of inhibition at 500 µg/mL (Escherichia coli) | zone of inhibition at 500 µg/mL (Aspergillus flavus) | zone of inhibition at 500 µg/mL (Klebsiella pneumoniae) | zone of inhibition at 500 µg/mL (Aspergillus oryzae) | Activity [1] | inhibition (INH) [2]
1 | Nc1ncnc2nc(-c3ccccc3)cc(-c3c(-c4ccccc4)[nH]c4ccccc34)c12 | 10 mm | 5 mm | 9 mm | 10 mm | 5 mm | 10 mm | 10 mm | 9 mm | – | –
2 | Nc1n[nH]c2nc(-c3ccccc3)cc(-c3c(-c4ccccc4)[nH]c4ccc(Cl)cc34)c12 | 5 mm | 14 mm | 5 mm | 12 mm | 8 mm | 10 mm | 13 mm | 10 mm | – | –
3 | Nc1ncnc2nc(-c3ccccc3)cc(-c3c(-c4ccccc4)[nH]c4ccc(Cl)cc34)c12 | 10 mm | 5 mm | 8 mm | 10 mm | 9 mm | 8 mm | 5 mm | 10 mm | 78% | –
4 | CN[C@@H]1[C@H](O[C@H]2[C@H](O[C@H]3[C@H](O)[C@@H](O)[C@H](N=C(N)N)[C@@H](O)[C@@H]3N=C(N)N)O[C@@H](C)[C@]2(O)C=O)O[C@@H](CO)[C@H](O)[C@H]1O [STREPTOMYCIN] | – | – | 13 mm | 13 mm | 13 mm | – | 13 mm | – | – | –
5 | Cc1ccc(-c2cc(-c3c(-c4ccccc4)[nH]c4ccccc34)c3c(N)ncnc3n2)cc1 | 10 mm | 8 mm | 10 mm | 11 mm | 10 mm | 8 mm | 11 mm | 10 mm | – | –
6 | O=c1[nH]cnc2nc(-c3ccc(Cl)cc3)cc(-c3c(-c4ccccc4)[nH]c4ccc(Cl)cc34)c12 | 10 mm | 8 mm | 13 mm | 11 mm | 11 mm | 3 mm | 11 mm | 14 mm | – | Active
7 | OC(Cn1cncn1)(Cn1cncn1)c1ccc(F)cc1F [FLUCONAZOLE] | 14 mm | 14 mm | – | – | – | 14 mm | – | 14 mm | – | –
8 | O=c1[nH]cnc2nc(-c3ccc(Cl)cc3)cc(-c3c(-c4ccccc4)[nH]c4ccccc34)c12 | 10 mm | 11 mm | 2 mm | 10 mm | 10 mm | 11 mm | 8 mm | 10 mm | – | –
9 | Nc1n[nH]c2nc(-c3ccc(Cl)cc3)cc(-c3c(-c4ccccc4)[nH]c4ccccc34)c12 | 10 mm | 8 mm | 8 mm | 14 mm | 10 mm | 11 mm | 10 mm | 10 mm | – | Active
10 | Cc1ccc2[nH]c(-c3ccccc3)c(-c3cc(-c4ccc(Cl)cc4)nc4nc[nH]c(=O)c34)c2c1 | 11 mm | 9 mm | 8 mm | 9 mm | 8 mm | 8 mm | 6 mm | 8 mm | 72.7% | –
11 | Cc1ccc(-c2cc(-c3c(-c4ccccc4)[nH]c4ccc(C)cc34)c3c(N)n[nH]c3n2)cc1 | 10 mm | 9 mm | 6 mm | 11 mm | 10 mm | 11 mm | 5 mm | 3 mm | – | –
